Here are results for 42 compounds from publication PMC7589200, “Identification of Putative Non-Substrate-Based XT-I Inhibitors by Natural Product Library Screening” (Biomolecules, 2020).

Structures are written as SMILES. Structures can show the parent of a compound that is named as a salt.

The test concerns the target T1, recombinant human XT-I (Homo sapiens, UniProt Q86Y38).
T1 sequence (Q86Y38 252-959 limits assumed): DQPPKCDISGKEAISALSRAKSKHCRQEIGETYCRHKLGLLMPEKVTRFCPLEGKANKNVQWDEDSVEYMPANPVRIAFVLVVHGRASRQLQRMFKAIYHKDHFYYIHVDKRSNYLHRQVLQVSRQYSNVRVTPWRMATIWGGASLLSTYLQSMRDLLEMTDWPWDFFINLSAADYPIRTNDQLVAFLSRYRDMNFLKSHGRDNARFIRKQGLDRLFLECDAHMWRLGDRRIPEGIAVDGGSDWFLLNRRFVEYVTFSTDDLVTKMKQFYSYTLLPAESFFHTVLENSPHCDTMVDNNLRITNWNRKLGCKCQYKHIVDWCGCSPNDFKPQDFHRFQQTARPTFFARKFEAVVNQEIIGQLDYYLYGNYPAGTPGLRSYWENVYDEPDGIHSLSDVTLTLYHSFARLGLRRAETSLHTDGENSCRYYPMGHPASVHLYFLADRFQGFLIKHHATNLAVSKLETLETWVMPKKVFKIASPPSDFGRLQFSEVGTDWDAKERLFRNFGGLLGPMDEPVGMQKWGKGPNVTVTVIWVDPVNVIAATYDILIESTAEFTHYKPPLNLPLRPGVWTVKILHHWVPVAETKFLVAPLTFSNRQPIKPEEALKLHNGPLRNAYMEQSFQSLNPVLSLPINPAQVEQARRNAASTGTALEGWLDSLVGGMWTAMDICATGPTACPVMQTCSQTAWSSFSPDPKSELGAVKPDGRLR
The experiment in a line: NP library inhibitor screening, UPLC/ESI-MS/MS XT-I assay. In kind it is biochemical. Particulars: Table S1; 50 μM inhibitor; relative to negative control containing DMSO; technical duplicates.
Regarding `CN(N=O)C(=O)N[C@H]1C(O)O[C@H](CO)[C@@H](O)[C@@H]1O` (mixture of isomers) [Compound 3, Streptozotocin (STZ)], the “XT-I Activity [%]” value was 101%.
Take `OC[C@H]1O[C@@H](O[C@@H]2[C@@H](CO)OC(O)(CO)[C@H]2O)[C@H](O)[C@@H](O)[C@H]1O` (mixture of isomers) [Compound 16, Lactulose]: the remaining activity (usually the signal under treatment as a percentage of the control signal) at 50 µM is 122%.
Same read-out and setting: then `CO[C@H]1C[C@@H]2CC[C@@H](C)[C@@](O)(O2)C(=O)C(=O)N2CCCC[C@H]2C(=O)O[C@H]([C@H](C)C[C@@H]2CC[C@@H](O)[C@H](OC)C2)CC(=O)[C@H](C)/C=C(\C)[C@@H](O)[C@@H](OC)C(=O)[C@H](C)C[C@H](C)/C=C/C=C/C=C/1C` [Compound 1, Rapamycin (Sirolimus)], with 70%; and `COc1cccc2c1C(=O)c1c(O)c3c(c(O)c1C2=O)C[C@@](O)(C(=O)CO)C[C@@H]3O[C@H]1C[C@H](N)[C@@H](O)[C@H](C)O1` [Compound 2, Epirubicin HCl], with 95%.
Consider `C[C@@H](O)[C@H]1C(=O)N2C(C(=O)O)=C(S[C@@H]3CN[C@H](CNS(N)(=O)=O)C3)[C@H](C)[C@H]12.O` [Compound 4, Doripenem Hydrate], for which the “XT-I Activity [%]” value is 86%.
Turning to `C[C@H]1[C@H](NC(=O)/C(=N\OC(C)(C)C(=O)O)c2csc(N)n2)C(=O)N1S(=O)(=O)O` [Compound 5, Aztreonam], the remaining activity at 50 µM was 94%.
For the compound `CC[C@H]1OC(=O)[C@H](C)[C@@H](O[C@H]2C[C@@](C)(OC)[C@@H](O)[C@H](C)O2)[C@H](C)[C@@H](O[C@@H]2O[C@H](C)C[C@H](N(C)C)[C@H]2O)[C@](C)(O)C[C@@H](C)C(=O)[C@H](C)[C@@H](O)[C@]1(C)O` [Compound 6, Erythromycin], the remaining activity at 50 µM turned out to be 105%.
Still for that read-out and setting: for `Nc1[nH]c(=O)ncc1F` [Compound 7, Flucytosine] the value was 93%.
The same measure, in the same setting: then `CO[C@H]1/C=C/O[C@@]2(C)Oc3c(C)c(O)c4c(c3C2=O)C2=NC3(CCN(CC(C)C)CC3)NC2=C(NC(=O)/C(C)=C\C=C\[C@H](C)[C@H](O)[C@@H](C)[C@@H](O)[C@@H](C)[C@H](OC(C)=O)[C@@H]1C)C4=O` [Compound 8, Rifabutin], with 112%.
The same measure, in the same setting: for `Nc1ncnc2c1ncn2[C@@H]1O[C@H](CO)[C@@H](O)[C@@H]1O` [Compound 9, Vidarabine] the value was 103%; for `O=c1c(-c2ccc(O)cc2)coc2cc(O)ccc12` [Compound 10, Daidzein], 115%.
On to `CC(=O)[C@H]1CC[C@H]2[C@@H]3CC=C4C[C@@H](O)CC[C@]4(C)[C@H]3CC[C@]12C` [Compound 11, Pregnenolone], for which the “XT-I Activity [%]” value is on record as 95%.
Still for that read-out and setting: for `CO[C@H]1/C=C\C=C(/C)C(=O)NC2=CC(=O)C(NCCN(C)C)=C(C[C@@H](C)C[C@H](OC)[C@H](O)[C@@H](C)/C=C(\C)[C@@H]1OC(N)=O)C2=O.Cl` [Compound 12, Alvespimycin (17-DMAG) HCl] the value was 120%.
Consider `COc1cc([C@@H]2c3cc4c(cc3[C@@H](O[C@@H]3O[C@@H]5CO[C@@H](C)O[C@H]5[C@H](O)[C@H]3O)[C@H]3COC(=O)[C@H]23)OCO4)cc(OC)c1O` [Compound 13, Etoposide], for which the remaining activity at 50 µM was determined as 114%.
Same read-out and setting: for `C=C1C(=O)O[C@@H]2/C=C(\C)CC/C=C(\C)CC[C@@H]12` [Compound 14, Costunolide] the value was 121%; for `CC1=C(/C=C/C(C)=C/C=C/C(C)=C\C(=O)O)C(C)(C)CCC1` [Compound 15, Isotretinoin], 86%.
Still for that read-out and setting: then `Cn1c(=O)c2[nH]cnc2n(C)c1=O` [Compound 18, Aminophylline], with 122%.
Same read-out and setting: for `O=C(O)c1cccnc1` [Compound 19, Nicotinic Acid] the value was 126%; for `CO[C@H]1/C=C/O[C@@]2(C)Oc3c(C)c(O)c4c(O)c(c5c(nc6cc(C)ccn65)c4c3C2=O)NC(=O)/C(C)=C\C=C\[C@H](C)[C@H](O)[C@@H](C)[C@@H](O)[C@@H](C)[C@H](OC(C)=O)[C@@H]1C` [Compound 20, Rifaximin], 83%; for `CCn1cc(C(=O)O)c(=O)c2cc(F)c(N3CCN(C)CC3)cc21` [Compound 21, Pefloxacin Mesylate], 108%.
In the case of `Cc1cc(NS(=O)(=O)c2ccc(N)cc2)no1` [Compound 22, Sulfamethoxazole], the remaining activity at 50 µM was 121%.
On the same count and under the same terms, then `CC(=O)O[C@@]12CO[C@@H]1C[C@H](O)[C@@]1(C)C(=O)[C@H](O)C3=C(C)[C@@H](OC(=O)[C@H](O)[C@@H](NC(=O)OC(C)(C)C)c4ccccc4)C[C@@](O)([C@@H](OC(=O)c4ccccc4)[C@H]21)C3(C)C` [Compound 23, Docetaxel], with 104%.
With `COc1cc2c(cc1O)CC[C@@H]1[C@@H]2CC[C@]2(C)[C@@H](O)CC[C@@H]12` [Compound 24, 2-Methoxyestradiol (2-MeOE2)], the “XT-I Activity [%]” value was determined as 114%.
Still for that read-out and setting: then `C[C@@H]1C[C@H]2[C@@H]3CCC4=CC(=O)C=C[C@]4(C)[C@@]3(F)[C@@H](O)C[C@]2(C)[C@@]1(O)C(=O)CO` [Compound 25, Dexamethasone (DHAP)], with 106%.
As for `C[C@@H](O)[C@H]1C(=O)N2C(C(=O)O)=C(S[C@@H]3CN[C@H](C(=O)N(C)C)C3)[C@H](C)[C@H]12` [Compound 26, Meropenem], the remaining activity at 50 µM amounted to 107%.
Take `C[C@@H]1C/C=C/C=C/C=C/C=C/[C@H](O[C@@H]2O[C@H](C)[C@@H](O)[C@H](N)[C@@H]2O)C[C@@H]2O[C@](O)(C[C@@H](O)C[C@H]3O[C@@H]3/C=C/C(=O)O1)C[C@H](O)[C@H]2C(=O)O` [Compound 27, Natamycin]: the remaining activity at 50 µM is 95%.
Still for that read-out and setting: then `CCCSc1ccc2nc(NC(=O)OC)[nH]c2c1` [Compound 28, Albendazole], with 77%.
In the case of `CCC(C)(C)c1ccc(CC(C)CN2C[C@@H](C)O[C@@H](C)C2)cc1` (stereo partly drawn) [Compound 29, Amorolfine HCl], the remaining activity at 50 µM is 70%.
As to `CO[C@H]1/C=C/O[C@@]2(C)Oc3c(C)c(O)c4c(O)c(c(/C=N/N5CCN(C6CCCC6)CC5)c(O)c4c3C2=O)NC(=O)/C(C)=C\C=C\[C@H](C)[C@H](O)[C@@H](C)[C@@H](O)[C@@H](C)[C@H](OC(C)=O)[C@@H]1C` [Compound 30, Rifapentine], the remaining activity at 50 µM turned out to be 50%.
The same measure, in the same setting: for `CCC(C)(C)C(=O)O[C@H]1C[C@@H](C)C=C2C=C[C@H](C)[C@H](CC[C@@H]3C[C@@H](O)CC(=O)O3)[C@H]21` [Compound 31, Simvastatin] the value was 82%.
As for `CC(C)[C@H](N)C(=O)OCCOCn1cnc2c(=O)nc(N)[nH]c21.Cl` [Compound 32, Valaciclovir HCl], the “XT-I Activity [%]” value was determined as 74%.
`Cc1noc(NS(=O)(=O)c2ccc(N)cc2)c1C` [Compound 33, Sulfisoxazole]: the remaining activity at 50 µM was found to be 95%.
As to `CC(=O)O[C@H]1C(=O)[C@@]2(C)[C@H]([C@H](OC(=O)c3ccccc3)[C@]3(O)C[C@H](OC(=O)[C@H](O)[C@@H](NC(=O)c4ccccc4)c4ccccc4)C(C)=C1C3(C)C)[C@]1(OC(C)=O)CO[C@@H]1C[C@@H]2O` [Compound 34, Paclitaxel], the remaining activity at 50 µM is 79%.
Still for that read-out and setting: for `CC[C@]1(O)C[C@H]2CN(CCc3c([nH]c4ccccc34)[C@@](C(=O)OC)(c3cc4c(cc3OC)N(C=O)[C@H]3[C@@](O)(C(=O)OC)[C@H](OC(C)=O)[C@]5(CC)C=CCN6CC[C@]43[C@@H]65)C2)C1` [Compound 35, Vincristine sulfate] the value was 87%; for `OC(Cn1cncn1)(Cn1cncn1)c1ccc(F)cc1F` [Compound 36, Fluconazole], 75%.
The same measure, in the same setting: then `Oc1ccc(/C=C/c2cc(O)cc(O)c2)cc1` [Compound 37, Resveratrol], with 51%; and `COC(=O)[C@H]1[C@H]2C[C@@H]3c4[nH]c5cc(OC)ccc5c4CCN3C[C@H]2C[C@@H](OC(=O)c2cc(OC)c(OC)c(OC)c2)[C@@H]1OC` [Compound 38, Reserpine], with 89%.
Still for that read-out and setting: for `C[C@H](CCC(=O)O)[C@H]1CC[C@H]2[C@@H]3[C@@H](O)C[C@@H]4C[C@H](O)CC[C@]4(C)[C@H]3CC[C@]12C` [Compound 39, Ursodiol] the value was 98%; for `O=C(N[C@H](CO)[C@H](O)c1ccc([N+](=O)[O-])cc1)C(Cl)Cl` [Compound 40, Chloramphenicol], 87%.
As to `CO[C@H]1/C=C/O[C@@]2(C)Oc3c(C)c(O)c4c(O)c(c(/C=N/N5CCN(C)CC5)c(O)c4c3C2=O)NC(=O)/C(C)=C\C=C\[C@H](C)[C@H](O)[C@@H](C)[C@@H](O)[C@@H](C)[C@H](OC(C)=O)[C@@H]1C` [Compound 41, Rifampin], the remaining activity at 50 µM turned out to be 77%.
Consider `Nc1nc2c(ncn2COCCO)c(=O)[nH]1` [Compound 42, Aciclovir], for which the remaining activity at 50 µM worked out at 71%.
Same read-out and setting: for `C[C@@H]1CN(c2c(F)c(N)c3c(=O)c(C(=O)O)cn(C4CC4)c3c2F)C[C@H](C)N1` [Compound 43, Sparfloxacin] the value was 89%.
